Reference: the METLIN SMRT retention time set (Domingo-Almenara et al. 2019)

Assay: gradient 5% acetonitrile 3 min, to 50% in 2 min, to 85% in 15 min, held 3 min, 100 µL/min
Settings: column: Zorbax Extend-C18 2.1 x 50 mm; eluents: water / acetonitrile, 0.1% formic acid
Summary of the method: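 Retention times come from adduct peaks that were picked computationally and then checked by hand. The standards, pure and pooled in mixtures of ~100 molecules, were run on a Zorbax Extend-C18 column (2.1 × 50 mm, 1.8 μm) at 100 μL/min with water and acetonitrile, each with 0.1% formic acid. Detection was by quadrupole time-of-flight mass spectrometry in positive and negative ionization mode, with a dead volume of 40 μL and a dwell volume of 900 μL.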

SMILES: Cc1sc(C)c(S(=O)(=O)N2CCCCC2)c1-c1cc(C(F)(F)F)on1
- RP-LC retention time: 1210 s

SMILES: COc1ccc(CCNC(=O)NCC2CCN(Cc3ccsc3)CC2)cc1
- RP-LC retention time: 565 s

SMILES: Cc1noc([C@@H]2CN(C(=O)c3occc3C)C[C@H]2COCC2CC2)n1
- RP-LC retention time: 794 s

SMILES: Cc1nc(-n2cccc2)sc1C(=O)Nc1ccc(-c2cn3c(n2)SCC3)cc1
- RP-LC retention time: 627 s

SMILES: CCOc1ccc(C2=NC3(CCN(CC)CC3)NC(c3ccccc3O)C2)cc1 (stereo not drawn)
- RP-LC retention time: 583 s

SMILES: CCN1C(=O)c2ccccc2Oc2ccc(C(=O)N3CCN(c4cccc(C)c4)C(C)C3)cc21 (stereo not drawn)
- RP-LC retention time: 1020 s

SMILES: O=C(NCCc1csc(-c2cccs2)n1)C1CCN(S(=O)(=O)c2ccc(Cl)cc2)CC1
- RP-LC retention time: 963 s

SMILES: COCc1nn(CC2CC2)c2c1CN(C(=O)c1ccc(OC)cc1)CC2
- RP-LC retention time: 715 s

SMILES: CC(C)Oc1ccc(CNC(=O)c2sc3ncccc3c2-n2cccc2)cc1
- RP-LC retention time: 1110 s

SMILES: O=C(NCCCn1nc(-c2ccncc2)ccc1=O)c1ccc2c(c1)OCO2
- RP-LC retention time: 555 s

SMILES: Cc1ccc(CNC(=O)C2CCCCC(=O)N2)o1 (stereo not drawn)
- RP-LC retention time: 636 s

SMILES: c1ccc2c(N3CCCCCC3)nnc(-c3nc(C4CC4)no3)c2c1
- RP-LC retention time: 895 s

SMILES: Cc1ccc2c(c1)N(c1ccc(N(C)C)cc1)C=C(C(=O)N1CCCC1)S2(=O)=O
- RP-LC retention time: 874 s

SMILES: CN(C)c1ccc(C(=O)N2CCC(COc3ccc(C(=O)N4CCCCC4)cc3)CC2)cc1
- RP-LC retention time: 929 s

SMILES: COc1ccc(-c2nc3cc(C)ccn3c2NC(=O)c2ccc(Br)cc2)cc1
- RP-LC retention time: 727 s

SMILES: CCNC(=O)c1nc(Nc2ccc(F)cc2)c2ccccc2n1
- RP-LC retention time: 688 s

SMILES: O=C(Cn1nc2nc(N3CCCC3)ccn2c1=O)NCCc1ccccc1
- RP-LC retention time: 947 s

SMILES: Cc1cccn2c(=O)cc(CN(C)Cc3ccc(Cl)cc3)nc12
- RP-LC retention time: 629 s

SMILES: COc1ccc2nc(-n3nc(C)cc3NC(=O)c3ccc([N+](=O)[O-])o3)sc2c1
- RP-LC retention time: 1220 s

SMILES: COCCCNC(=O)C1CCCN(S(=O)(=O)c2ccc(OC)c(OC)c2)C1 (stereo not drawn)
- RP-LC retention time: 699 s

SMILES: CCN1C(=O)c2cccnc2Sc2cc(CNC(=O)c3ccc(F)cc3)ccc21
- RP-LC retention time: 765 s

SMILES: CC(=O)N1CCC2(CC1)CC(N(C(=O)NC(C)C)C1CC1)CCO2 (stereo not drawn)
- RP-LC retention time: 653 s

SMILES: c1ccc(-c2nnc(-c3ccc(-n4ccnc4)nc3)o2)cc1
- RP-LC retention time: 639 s

SMILES: O=C(Nc1cc(-c2ccccn2)no1)c1ccccc1Br
- RP-LC retention time: 789 s

SMILES: Cc1ccccc1-c1nc(-c2ccc3c(c2)nnn3C)no1
- RP-LC retention time: 1050 s

SMILES: CCNS(=O)(=O)c1c(C)[nH]c(=O)[nH]c1=O
- RP-LC retention time: 550 s

SMILES: CCC(CO)NC(=O)C(=O)Nc1ccccc1SC (stereo not drawn)
- RP-LC retention time: 710 s

SMILES: Cc1oc(C2CCN(S(=O)(=O)c3ccc(C#N)cc3)CC2)nc1C(=O)N1CCOCC1
- RP-LC retention time: 760 s

SMILES: CCCCN1C(=O)C(C)(C(=O)NCCOC)Oc2cccnc21 (stereo not drawn)
- RP-LC retention time: 781 s

SMILES: COc1ccccc1N1CCN(c2cc(SCC(=O)Nc3cccc(SC)c3)ncn2)CC1
- RP-LC retention time: 1020 s

SMILES: Cc1ccc(-c2noc(Cn3ccnc3)n2)cc1
- RP-LC retention time: 624 s

SMILES: Cc1ccc(-c2nnc(Cc3nc(C(C)C)no3)o2)cc1C
- RP-LC retention time: 967 s

SMILES: CCOc1ccc(N2CC(c3nnc(NC(=O)c4ccc(C(C)(C)C)cc4)o3)CC2=O)cc1 (stereo not drawn)
- RP-LC retention time: 935 s

SMILES: COC(=O)c1ccccc1NC(=O)C1CCCN(c2ncnc3onc(-c4ccc(F)cc4)c23)C1 (stereo not drawn)
- RP-LC retention time: 1130 s

SMILES: O=C(c1ccccc1F)N1CCN(C(=O)c2nnn3c2COC(c2ccc(Cl)cc2)C3)CC1 (stereo not drawn)
- RP-LC retention time: 914 s

SMILES: O=C(CCc1c(-c2ccc(Cl)cc2)nc2ccccn12)Nc1cccc(C(F)(F)F)c1
- RP-LC retention time: 782 s

SMILES: Cc1nc(-c2csc(S(=O)(=O)N3CCCC(C(=O)NCCc4cccs4)C3)c2)no1 (stereo not drawn)
- RP-LC retention time: 872 s

SMILES: COc1ccc(-c2ncc3c(=O)n(Cc4ccccc4Cl)c(=O)n(C)c3n2)cc1
- RP-LC retention time: 1210 s

SMILES: O=C(Nc1ccccc1)C(=O)c1ccc[nH]1
- RP-LC retention time: 812 s

SMILES: CC(C)CC(=O)N1CCCC(C(=O)N2CCOCC2)C1 (stereo not drawn)
- RP-LC retention time: 628 s

SMILES: O=C(NC1CCCC1)C1CCN(Cc2noc(-c3ccc(F)cc3)n2)CC1
- RP-LC retention time: 647 s

SMILES: COc1cc(Nc2nc3ccccc3nc2NS(=O)(=O)c2ccc(NC(=O)c3ccc(C)c(OC)c3)cc2)cc(OC)c1
- RP-LC retention time: 1240 s

SMILES: CC(C)(C)C(=O)OCOP(=O)(COCCn1cnc2c(N)ncnc21)OCOC(=O)C(C)(C)C
- RP-LC retention time: 725 s

SMILES: CC(C)Oc1ccc(-c2noc(Cn3c(=O)n(-c4ccc(Cl)cc4)c(=O)c4sccc43)n2)cc1
- RP-LC retention time: 1140 s

SMILES: CCc1cccc(NC(=O)N2CCC(OC3CCN(S(C)(=O)=O)CC3)CC2)c1
- RP-LC retention time: 803 s

SMILES: CC(C)CCNS(=O)(=O)c1ccccc1-c1nc(-c2ccccc2)no1
- RP-LC retention time: 1240 s

SMILES: CN(C)C(=O)c1cc2c(s1)CCC(C(=O)NCc1ccc(N3CCOCC3)cc1)C2 (stereo not drawn)
- RP-LC retention time: 655 s

SMILES: CC(C)N1CC(CNC(=O)c2ccc(Cl)s2)C2(CCCCC2)C1 (stereo not drawn)
- RP-LC retention time: 694 s

SMILES: O=C(NCc1cccs1)C1CCN(C(=O)c2ncn3c2COC(c2ccc(F)cc2)C3)CC1 (stereo not drawn)
- RP-LC retention time: 736 s

SMILES: Cc1cc(C)n(-c2ccnc(NCCc3cccs3)n2)n1
- RP-LC retention time: 836 s

SMILES: CCOc1ccc(NC(=O)N2CCCC2c2nc(-c3ccccc3OC)no2)cc1 (stereo not drawn)
- RP-LC retention time: 859 s

SMILES: O=C(CN1CCN(Cc2ccccc2F)C1=O)N1CCN(c2ccccc2)CC1
- RP-LC retention time: 778 s

SMILES: COc1ccc(N2C(=O)C3N=NN(Cc4nc(-c5ccc(OC(C)C)cc5)no4)C3C2=O)cc1OC (stereo not drawn)
- RP-LC retention time: 841 s

SMILES: Cc1ccc(NC(=O)Cn2nc(N(C)C)c3ccccc3c2=O)cc1F
- RP-LC retention time: 920 s

SMILES: Cc1cc(C)cc(S(=O)(=O)N2CCc3c(c(-c4nnc(-c5ccccc5)o4)nn3C)C2)c1
- RP-LC retention time: 1020 s

SMILES: CCc1ccc(S(=O)(=O)NCCc2cn(C)c3ncccc23)cc1
- RP-LC retention time: 786 s

SMILES: Cc1cccc(CNC(=O)CCc2conc2-c2ccccc2)c1
- RP-LC retention time: 923 s

SMILES: Cc1ccccc1S(=O)(=O)N1CCCC(CCC(=O)NCC2CCCCC2)C1 (stereo not drawn)
- RP-LC retention time: 580 s

SMILES: CCS(=O)(=O)c1ccc2c(c1)N(Cc1nc(-c3ccc4c(c3)OCO4)no1)C(=O)CO2
- RP-LC retention time: 859 s

SMILES: CCN1C(=O)c2cccnc2Sc2cc(CNC(=O)c3ccccc3OC)ccc21
- RP-LC retention time: 772 s

SMILES: CCc1ccccc1NC(=O)C1CCN(S(=O)(=O)c2ccc3c(c2)CCCC(=O)N3)CC1
- RP-LC retention time: 757 s

SMILES: COc1cccc(-c2ccc(=O)n(CCc3nc(-c4ccc5c(c4)OCO5)no3)n2)c1
- RP-LC retention time: 804 s

SMILES: O=C(O)c1cccc(Nc2c(-c3cccc(O)c3)nc3cnccn23)c1
- RP-LC retention time: 633 s

SMILES: CS(=O)(=O)N(C1CCOCC1)C1CN(C(=O)Cc2c[nH]c3ccccc23)C1
- RP-LC retention time: 667 s

SMILES: COc1ccccc1NC(=O)NCCC1CCN(S(=O)(=O)c2ccccc2)CC1
- RP-LC retention time: 910 s

SMILES: O=C(NCc1cccnc1)c1cccn1Cc1noc(-c2ccc(Cl)cc2)n1
- RP-LC retention time: 701 s

SMILES: Cc1cccc(C)c1NC(=O)CN1C(=O)NC(c2ccc(Cl)cc2)C2=C1COC2=O (stereo not drawn)
- RP-LC retention time: 747 s

SMILES: O=C(Cc1cccn1-c1ccc(Cl)cc1)NCc1ccc(N2CCOCC2)cc1
- RP-LC retention time: 886 s

SMILES: O=C(NCCCN1CCCC1)c1ccc(-c2noc(-c3ccccc3)n2)s1
- RP-LC retention time: 680 s

SMILES: CC(C)Sc1ccc(CC(=O)NCC2CCN(C(=O)Nc3ccc(F)cc3)CC2)cc1
- RP-LC retention time: 860 s

SMILES: CCn1cc(-c2ccc(Cl)cc2)cc1C(=O)NCCN1CCOCC1
- RP-LC retention time: 705 s

SMILES: CCCn1c(C)cnc1C1CN(S(=O)(=O)c2ccc(Cl)c(Cl)c2)C1
- RP-LC retention time: 724 s

SMILES: Cn1cc(CN2CCC(C(=O)N3CCN(c4ccccn4)CC3)CC2)c2cc(Cl)ccc21
- RP-LC retention time: 584 s

SMILES: COC(=O)COc1cc(-c2cccc(Cl)c2)nc2ccc(NC(=O)c3ccco3)cc12
- RP-LC retention time: 886 s

SMILES: COCCn1ccc2nc(C)c(C(=O)NCc3cccs3)cc2c1=O
- RP-LC retention time: 656 s

SMILES: CCn1c(C(=O)NCCCN2CCCC(C)C2)cc2c(-c3cccs3)nn(-c3ccccc3)c21 (stereo not drawn)
- RP-LC retention time: 802 s

SMILES: Cc1cc(C)cc(NC(=O)Cn2c(=O)nc(N3CCCC(C)C3)c3ccccc32)c1 (stereo not drawn)
- RP-LC retention time: 913 s

SMILES: O=C(CC1CCN(C(=O)c2cc3cc(Cl)ccc3[nH]2)CC1)N1CCN(c2ccccn2)CC1
- RP-LC retention time: 669 s

SMILES: Brc1ccc(-c2noc(Cc3nc(-c4ccc5c(c4)OCO5)cs3)n2)cc1
- RP-LC retention time: 1270 s

SMILES: Cc1ccc(N2CCN(C(=O)c3ccc(Cn4cncn4)cc3)CC2)c(C)c1
- RP-LC retention time: 867 s

SMILES: CCC(=O)N1CCc2cc(N3CC(C(=O)NC4CCCC4)CC3=O)ccc21 (stereo not drawn)
- RP-LC retention time: 686 s

SMILES: O=S(=O)(NCC1CCN(Cc2ccco2)CC1)c1ccc2c(c1)CCCC2
- RP-LC retention time: 603 s

SMILES: CC1CCC2(CC1)NC(=O)N(CC(=O)NCc1ccccc1)C2=O (stereo not drawn)
- RP-LC retention time: 784 s

SMILES: O=C(NCCc1csc(-c2ccccc2)n1)c1ccccc1C(F)(F)F
- RP-LC retention time: 883 s

SMILES: CCCN1C(=O)C(NC(=O)CCc2ccccc2)(C(F)(F)F)C(C(=O)OC)=C1C (stereo not drawn)
- RP-LC retention time: 916 s

SMILES: Cc1noc(C)c1S(=O)(=O)N1[C@H]2CC[C@@H]1c1cnc(-c3ccccc3)nc1C2
- RP-LC retention time: 1050 s

SMILES: CCOc1ccc(-c2cc3c(=O)n(Cc4nc(-c5ccccc5Br)no4)ncn3n2)cc1
- RP-LC retention time: 1160 s

SMILES: O=C(NCCN1CCCC1)c1cccc(-c2ccc(N3CCCCCC3)nc2)c1
- RP-LC retention time: 574 s
